Test results reported in patent publication US9375436B2, “Androgen treatment in females” (priority 2004, dated 2016).
Values joined by “and” are separate entries in the source; they are usually repeats but may differ in a detail not shown here. Identical values can stand only once. “Also recorded” adds a separate entry of the source.

Tests used:
[1] = tested on: person with evidence of decreased ovarian reserve; details: human, in vivo
women with DOR = assay: Matched case control study of embryo aneuploidy by preimplantation genetic screening (Example 11); type: in vivo, human
Description: In a 1:2, matched case control study, 22 consecutive women with DOR, supplemented with DHEA, underwent preimplantation genetic screening (PGS) of embryos during in vitro fertilization (IVF) cycles. Each was matched by patient age and time period of IVF with two control IVF cycles without DHEA supplementation (n=44). PGS was performed for chromosomes X, Y, 13, 16, 18, 21 and 22, and involved determination of numbers and percentages of aneuploid embryos.
We retrieved from our center's computerized research data bank a total of 22 consecutive DOR patients who underwent IVF/PGS while on DHEA supplementation. Only first IVF cycles were analyzed. These cycles were matched with the two control cycles not on DHEA supplementation, based on patient age and year of treatment (44 controls).
Normal age-specific hormone levels were defined by 95% confidence intervals at all ages, as previously reported. Since patients with DOR were, thus, uniformly diagnosed before IVF cycle protocols were determined, they were all supplemented with DHEA, and stimulation adjustments were made.
During the study period all DOR patients at our center routinely received DHEA supplementation. Those not receiving DHEA, therefore, by definition, had age-appropriate ovarian reserve, confirmed by normal anti-Müllerian hormone (AMH), follicle stimulating hormone (FSH) baseline levels and estradiol. Patients receiving DHEA supplementation were prescribed 25 mg of micronized, pharmaceutical grade DHEA, T.I.D, for at least four weeks prior to IVF cycle start. Short-term supplementation was defined as 4 to 12 weeks of DHEA prior to IVF and PGS; supplementation beyond that was considered long-term supplementation.
Patients with premature DOR, or if over 40 years of age, in first treatment cycles universally receive a so-called microdose gonadotropin releasing hormone agonist (GnRH-a) ovarian stimulation protocol, characterized by leuprolide acetate (50 μg/0.1 mL, b.i.d.; Lupron®, Abbot Pharmaceuticals, North Chicago, Ill.) and ovarian stimulation with follicle stimulating hormone (FSH, 300 IU-450 IU daily) and human menopausal gonadotropins (hMG, 150 IU). If under age 40 with normal ovarian reserve patients receive down regulation with full dose GnRH-a (1.0 mg/0.1 mL) and ovarian stimulation with up to 300 IU of gonadotropins, usually half as FSH and half as hMG. Higher luteinizing hormone (LH) contributions to ovarian stimulation, if anything, reduce embryo aneuploidy. The small difference in ovarian stimulation protocols between women with DOR and controls, therefore, potentially biases study outcome towards lower aneuploidy rates in the control population, which received a proportionally higher LH contributions to ovarian stimulation.
PGS was performed, utilizing fluorescence in situ hybridization (FISH) in routine fashion, utilizing probes for seven chromosomes (X, Y, 13, 16, 18, 21 and 22) on day three after fertilization, when embryos reached six to eight cell stages. This restricted chromosome panel is currently routinely utilized for PGS.
A general linear model was constructed to assess DHEA effects on percent aneuploidy after adjustment for age, indications for PGS, stimulation protocol and total gonadotropin dosage utilized. The latter adjustment was made as a surrogate for potential physician biases in how individual patients were stimulated, and potential effects such stimulation biases may have on ploidy.

DOR patients = assay: Pregnancy outcome at various AMH levels under DHEA supplementation; type: in vivo, human
Source text: Another study from our center further supports these conclusions (FIG. 22). FIG. 22 is a graph showing spontaneous pregnancy loss in spontaneous and IVF pregnancies at various AMH levels. The figure depicts at various AMH levels in the left column IVF pregnancies (IVF), as previously reported (26), and in the right column spontaneously conceived pregnancies (SP). Each column represents 100% of all pregnancies established, separated for live births (black section), voluntary termination of pregnancy (TOP; usually for aneuploidy) and spontaneous miscarriages (SAB).
In that study (FIG. 22), we investigated live birth rates after IVF at extremely low anti-Müllerian hormone (AMH) levels and were surprised how low miscarriage rates were between non-detectable levels of AMH and 0.4 ng/mL. Losses then increased between AMH 0.41-1.05 ng/mL to over 50 percent, the expected rate in DOR patients, only to fall, once again, to very low levels above AMH 1.05 ng/mL. […]
AMH<1.05 ng/mL represents more severe DOR. […] Chances of clinical pregnancies, miscarriages, terminations of pregnancy, and viable deliveries were then determined among severe DOR patients, depending on AMH levels (below detection, <0.1 ng/mL, 0.1-0.4 ng/mL, 0.41-0.8 ng/mL, 0.81-1.05 ng/mL) and with milder DOR (>1.06 ng/mL). […]

[2] = Side effects and complications of DHEA supplementation; type: in vivo, human
Description: We maintained in all studies and treatment protocols the oral medication dosage of about 25 mg TID (three times a day for a total of about 75 mg per day), used by our index patient. […] Studies to determine best dosaging of DHEA in the treatment of DOR have so far not been performed.
Ovarian stimulation was identical for study and control groups and comprised microdose agonist flare, followed by maximal dosage gonadotropin stimulation, using about 300-450 IU of FSH and about 150 IU of HMG. Study patients received DHEA continuously until a positive pregnancy test was obtained or until the patient dropped out of treatment. DHEA and DHEAS levels were monitored monthly, and patients were interviewed at each visit about adverse reactions to DHEA supplementation.

[3] = tested on: proven poor responders to ovarian stimulation with gonadotropins; details: 80 mg micronized DHEA for two months; five poor responders, six IVF cycles; cited from earlier work
[4] = DHEA patients n=22, PGS by FISH, seven chromosomes

With `C[C@]12CC[C@H](O)CC1=CC[C@@H]1[C@@H]2CC[C@]2(C)C(=O)CC[C@@H]12` [DHEA, Dehydroepiandrosterone] the “(log) peak E2 increase” value [1] was 0.47±0.06, the “aneuploid embryos amongst 10 embryos (PGD)” value [1] was “nine” and the “average embryo cell count” value [1] was 6.83±1.37 and 7.2±1.15. For the same molecule, the “cryopreservable embryo yield increase” value [1] was 1.4±0.14 embryos per cycle, the cryopreservable embryos [1] was 11 and the embryo morphology [1] was 3.6±0.5 and 3.7±0.5. The “embryos in a cycle” value [1] was 9 and 10 and 11, the “embryos of high enough quality to undergo cryopreservation” value [1] was 49 and the embryos produced [1] was 16. For the same molecule, the oocyte yield increase [1] was 2.5±0.34 oocytes per cycle, the “oocytes in a cycle” value [1] was 13 and 16 and 19 and the oocytes retrieved [1] was 17. The “total viable embryos cryopreserved” value [1] was 50, the oocytes produced ([1]; po) was 19 and the “Embryo Grades (mean ± SD)” value (women with DOR; DHEA patients n=22) was 3.4±0.4. For the same molecule, the “Embryos Cryopreserved (n, mean ± SD)” value (women with DOR; DHEA patients n=22) was 0.7±1.6, the “Embryos Transferred (n, mean ± SD)” value (women with DOR; DHEA patients n=22) was 1.4±0.9 and the “Embryos Undergoing PGS (n, mean ± SD)” value (women with DOR; DHEA patients n=22) was 7.3±3.9. For the same molecule, the “Oocytes retrieved (n, mean ± SD)” value (women with DOR; DHEA patients n=22, 25 mg T.I.D. at least four weeks) was 9.6±6.2, the “aneuploid embryos (absolute number)” value (women with DOR; [4]) was 2.8±2.5 and the percentages of aneuploidy (women with DOR; [4]) was 38.2±24.4. For the same molecule, the reduction in aneuploidy (women with DOR; short term supplementation (4-12 weeks), 95% CI -2.871-46.031) was 21.6%, the “chance of live birth per treatment cycle” value (DOR patients; DOR patients under DHEA supplementation, up to AMH 1.05 ng/mL) was “approximately 5%” and the “pregnancy chance per IVF cycle” value (DOR patients; under DHEA supplementation, absence of detectable AMH) was about 5%. The side effects ([2]; oral DHEA about 25 mg TID) was “small and primarily relate to androgen effects; also recorded: mild transient acne on the face, chest or back, oily skin and mild hair loss; also recorded: appears safe and results in only minor side effects; also recorded: limited to oily skin, rarely mild acne vulgaris and mild hair loss”, the complications ([2]; over 1,000 patients supplemented with DHEA) was “not encountered even a single complication of serious clinical significance” and the “response to ovarian stimulation compared with prior unsupplemented cycle” value [3] was “improved responsiveness”.
